Active and inactive are the calls of the source.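 How the source made its calls: active means minimum cell viability of 80% or lower across the dose range, counted as toxic; inactive means minimum cell viability above 80%.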
Legend:
[1] = MAGI-CCR5 and HeLa-R5-16 cytotoxicity, dose response, cytotoxicity control for HIV-1 fusion inhibitor project, cell-based, MAGI and MAGI-HeLa co-culture (AID 2286); settings: MAGI-CCR5 cells viability, CellTiter-Glo ATP luminescence; for minimum viability: measured here: MAGI minimum viability across doses;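 on all read-outs here: cells exposed to compound for at least 64 h before ATP readout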;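 on minimum viability: 100% = median of DMSO vehicle wells with no ATP signal meaning 0%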;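 on viability: 100% = median of DMSO vehicle wells with no ATP signal meaning 0%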
[2] = test system: MAGI-CCR5 cells viability, CellTiter-Glo ATP luminescence; assay: as above
[3] = MAGI-HeLa co-culture viability, at 50 µM, stronger effect = lower value
[4] = measured here: MAGI + HeLa-R5-16 co-culture viability

Compound | viability [1, 3] [%] | minimum viability ([1]; at 50 µM, stronger effect = lower value) [%] | CC50 [2] [µM] | CC50 [2, 4] [µM] | viability ([1]; at 50 µM (top of the series)) | minimum viability ([1]; at 3.13 µM, stronger effect = lower value) [%] | minimum viability ([1]; at 25 µM, stronger effect = lower value) [%] | minimum viability ([1]; at 12.5 µM, stronger effect = lower value) [%]
O=c1cc(-c2ccccc2Cl)oc2c(NS(=O)(=O)c3cc(Cl)cc(Cl)c3O)ccc(O)c12 | 20.8 | 16.3 | 5.61 | 15.6 |  |  |  | 
CC(C)(C)c1ccc(OCC(=O)NNC(=S)NC(=O)c2ccccc2[N+](=O)[O-])c(Br)c1 | 67.6 | 71 |  | > 50 |  |  |  | 
CCOc1cc(/C=C2\C(=N)N3N=C(S(C)(=O)=O)SC3=NC2=O)ccc1OCCOc1cccc(OC)c1 | 47.3 | 78 |  | 43.2 |  |  |  | 
Cc1cc(Cl)ccc1OC(C)C(=O)Nc1ccc(C(=O)Nc2ccccc2C(=O)O)cc1 (stereo not drawn) | 63.6 | 49.8 | 48.8 | > 50 |  |  |  | 
Cc1ccc(-c2nc(SCC(=O)Nc3ccccc3OC(F)F)c3c(C)c(C(=O)O)sc3n2)cc1 | 58 | 36.8 | 36.4 | > 50 |  |  |  | 
Cc1ccccc1C(=O)Nc1cccc(C(=O)N/N=C/c2cc(Cl)cc([N+](=O)[O-])c2O)c1 | 68.4 | 52.8 |  | > 50 |  |  |  | 
O=[N+]([O-])c1cc([N+](=O)[O-])c2oc(-c3ccccc3)c(Br)c2c1O | 57.6 | 34.5 | 22.5 | > 50 |  |  |  | 
COc1ccc(/C=C2/SC(=S)N(CC(=O)O)C2=O)cc1OCc1ccc(Cl)cc1 | 67 |  |  | > 50 | 104% (inactive) | 85.8 |  | 
O=C(NN1C(=O)/C(=C/c2ccc(O)cc2)SC1=S)c1ccccc1O | 36.5 | 27.6 | 26.7 | 41.3 |  |  |  | 
COc1cc(/C=C(\C#N)c2nc3ccccc3s2)cc([N+](=O)[O-])c1O | 101 | 43.3 | 38.1 |  |  |  |  | 
O=C(NN1C(=O)/C(=C\c2ccc(O)c([N+](=O)[O-])c2)SC1=S)c1ccccc1Cl | 69.9 | 62.8 |  | > 50 |  |  |  | 
O=C(O)c1cc(-c2ccc(-c3c(-c4ccc5c(c4)OCO5)noc3-c3ccsc3)cc2)nc2ccccc12 | 64.8 | 40.9 | 32.5 | > 50 |  |  |  | 
O=C(OCC1OC(n2ncc(=O)[nH]c2=O)C(OC(=O)c2ccccc2)C1OC(=O)c1ccccc1)c1ccccc1 (stereo not drawn) | 111 | 44 | 42.2 |  |  |  |  | 
O=C(O)c1ccc(N2C(=O)/C(=C/c3ccc(-c4ccc([N+](=O)[O-])cc4)o3)C=C2c2ccccc2)cc1 | 65.7 |  | 35.4 | > 50 |  |  | 46.8 | 
O=C(O)c1ccc(N/N=C/c2ccc(-c3cccc(Cl)c3)o2)cc1 | 10.1 | 21.6 | 10.3 | 2.83 |  |  |  | 
O=C(NC(=S)Nc1ccccc1C(=O)O)c1ccc(-c2ccc(Br)cc2)o1 | 59.6 | 77.9 |  | > 50 |  |  |  | 
O=[N+]([O-])c1cc(Cl)cc(/C=N/NC(=S)Nc2cc(S(=O)(=O)N3CCOCC3)ccc2Cl)c1O | 65.7 | 34.7 | 31.1 | > 50 |  |  |  | 
O=C(O)COc1ccc(/C=C/C(=O)c2ccc(C3CCCCC3)cc2)cc1 | 76.3 | 48.7 | 49.7 | > 50 |  |  |  | 
O=C(N/N=C/c1ccc(-c2ccc(S(=O)(=O)Nc3ncccn3)cc2)o1)c1cc2ccccc2cc1O | 30.7 | 16.4 | 15.8 | 32.6 |  |  |  | 
CCn1nc([N+](=O)[O-])c(C(C#N)c2nc3cc(C(F)(F)F)ccc3s2)c(Cl)c1=O (stereo not drawn) |  | 22.2 | 27.8 |  |  |  |  | 
O=C(Nc1ccccc1Cc1ccccc1)c1ccccc1NS(=O)(=O)c1ccc(Cl)s1 | 26.2 |  | 1.68 | 5.85 |  |  |  | 15.3
O=C(O)CN1C(=O)/C(=C\c2cc(Br)ccc2OCc2ccc(Cl)cc2)SC1=S | 52.4 | 90.5 |  | 48.6 | 90.5% (inactive) |  |  | 
Cc1cccc(C)c1-n1cccc1/C=C1\SC(=S)N(c2cccc(C(=O)O)c2)C1=O | 67.8 | 62.3 |  | > 50 |  |  |  | 
COc1ccc(C(=O)/C=C/c2cccc(OCc3ccccc3)c2)cc1CSCC(=O)O | 13.8 | 5.22 | 28.5 | 46.4 |  |  |  | 
COc1cc(/C=C2\SC(=S)NC2=O)ccc1OS(=O)(=O)c1ccccc1 | 35.9 | 24.8 | 17.9 | 40.7 |  |  |  | 
COc1cc(/C=C2\C(=N)N3N=C(S(C)(=O)=O)SC3=NC2=O)ccc1OCCOc1ccccc1C | 15 | 51.5 |  | 10 |  |  |  | 

Reference: PubChem BioAssay AID2286 (Southern Research Specialized Biocontainment Screening …, 2010)
